BindingDB's records for doi:10.1021/np9904410 (Virginia Polytechnic Institute and State University, 2000)

What was measured:
[1] = Inhibition of topoisomerase 1 in Saccharomyces cerevisiae RS321N in glucose medium by microtiter plate assay
[2] = Inhibition of topoisomerase 1 in Saccharomyces cerevisiae RS321N in galactose medium by microtiter plate assay

IC50 [1] [µM] | IC50 [2] [µM] | SMILES
5.71 | 4.81 | COc1ccc(/C=C\c2cc(OC)c(OC)c(OC)c2)c(O)c1O [combretastatins A-1]
> 201 | 138 | COc1ccc(CCc2cc(OC)c(OC)c(OC)c2)c(O[C@H]2O[C@@H](CO)[C@H](O)[C@@H](O)[C@@H]2O)c1O
